Results reported in US9370535B2, “Method for treatment of advanced solid tumors” (BOEHRINGER INGELHEIM INTERNATIONAL GMBH, priority 2011, dated 2016).

System: patients with advanced and/or metastatic solid tumours
Assay: Clinical trial of Volasertib in combination with Cisplatin (arm A) or Carboplatin (arm B)
Assay type: in vivo
Details: for maximum tolerated dose for volasertib: single 2-hour infusion on day 1 every 3 weeks
Excerpt: Sequential cohorts of three to six patients (pts) received a single 2-hour infusion of Volasertib (V) in combination with Cisplatin (Cis) (arm A) or Carboplatin (Ca) (arm B), on day 1 every 3 weeks. Cis and Ca were given for up to six cycles (Cy), V was continued until disease progression or unacceptable toxicity.

## CC[C@@H]1C(=O)N(C)c2cnc(Nc3ccc(C(=O)N[C@H]4CC[C@H](N5CCN(CC6CC6)CC5)CC4)cc3OC)nc2N1C(C)C [Volasertib, N-[trans-4-[4-(cyclopropylmethyl)-1-piperazinyl]cyclohexyl]-4-[[(7R)-7-ethyl-5,6,7,8-tetrahydro-5-methyl-8-(1-methylethyl)-6-oxo-2-pteridinyl]amino]-3-methoxy-benzamide]
Arm A (with Cisplatin), CHOP-resistant follicular dendritic reticulum cell sarcoma, dose levels A2, A4
  partial responses (PR) observed: two
Arm A (with Cisplatin), pretreated lung cancer, dose level A5, PR yet to be confirmed
  partial responses (PR) observed: one
Arm B (with Carboplatin), heavily-pretreated head and neck carcinoma, dose level B4
  partial responses (PR) observed: one
Both arms together (combination with Cisplatin or Carboplatin), 46 patients
  partial responses (PR) observed: Four
human, in vivo
  side effects (myelosuppression) on combination: without potentiation of those side effects
In combination with carboplatin
  maximum tolerated dose for volasertib: ≥ 300 mg
In combination with cisplatin
  maximum tolerated dose for volasertib: ≥ 300 mg
